Key:
[1] = tested on: VEGF mRNA; experiment: VEGF mRNA expression in wild type murine embryonic fibroblasts (quantitative PCR); type: cell-based; settings: hypoxic conditions (1% O2); 1, 10 and 100 μM; vs. hypoxia control; FIG. 1A
Experimental: Total RNA was isolated from tissues and cells by using TRIzol™ Reagent (Invitrogen) and the RNeasy kit (Qiagen), respectively. 1 μg RNA was used for reverse transcription using SuperScript II First-Strand Synthersis System (Invitrogen). cDNA's were amplified in a SYR Green or TaqMan Universal Master Mix (Applied Biosystems). Quantitative PCR (qPCR) was performed on ABI Prism 7700 sequence detection system. PCR conditions are: 10 min at 95° C., 40 cycles of 15 seconds at 95° C. and 1 minute at 60° C. The relative amount of mRNA was calculated after normalization to β-actin.
Cells were cultured in DMEM (#11965-092, Invitrogen) supplemented with 10% fetal bovine serum (Invitrogen), 100 U/mL penicillin and […] streptomycin. For glucose deprivation, DMEM without glucose (#11966-025, Invitrogen) was used.
Mouse embryonic fibroblasts (MEFs) were isolated from E12.5 embryos and immortalized by stable transfection with SV40 large T antigen.

[2] = tested on: Pmel17 mRNA; experiment: Evaluation of lung metastases (Pmel17 mRNA, nested PCR) in B16F10 tumor-bearing mice; type: in vivo; settings: FIG. 5; stabilizer I.P., GM-CSF I.T.; vs. vehicle control
Experimental: Lung metastases were evaluated by detection of mRNA for melanocyte-specific proteins within the lungs of tumor-bearing mice. B16F10 tumor-bearing mice were treated with GM-CSF and/or the disclosed HIF-2α stabilizer, as depicted in FIG. 3. At the time of sacrifice, lungs were excised and flash-frozen in liquid nitrogen. Frozen lungs were homogenized in liquid nitrogen and the pulverized material was dissolved in TRIzol™ reagent (Invitrogen). […] The melanocyte-specific Pmel17 was detected by nested PCR using a modification of the protocol described by Tsukamoto et al. For the initial reaction, 30 cycles of PCR were carried out (95° C. for 1 minute, 58° C. for 1 min, 72° C. for 1 min) in a 20 μL reaction volume containing 2 μL of cDNA. […] Data were analyzed according to the comparative threshold method and normalized against the GAPDH internal control transcript. Results are semi-quantitative and represent the fold difference in transcript levels in vehicle-treated control mice as compared with levels in mice treated with the disclosed HIF-2α stabilizer and/or GM-CSF.
Lung metastases were evaluated by detection of mRNA for melanocyte-specific proteins within the lungs of tumor-bearing mice. […] Data were analyzed according to the comparative threshold method and normalized against the β-actin internal control transcript. […]

[3] = tested on: HIF-2α; experiment: Immunoblot for HIF-2α in murine bone marrow-derived macrophages; type: cell-based; settings: treated for 18 hours, FIG. 11A
Experimental: (§1) To generate bone marrow-derived macrophages (BDMs), femoral bone marrow was isolated and progenitor cells were plated in RPMI-1640 supplemented with 10% FBS, 1% PSA, 10 μg/mL of polymyxin B, and 20 ng/mL of recombinant murine M-CSF. Cells were cultured for 5 days with the addition of fresh M-CSF every other day. Differentiated BDM were serum-starved for 2 hours and then treated with 100 ng/mL of murine GM-CSF and/or 25 μM the disclosed HIF-2α stabilizer in RPMI-1640 containing 1% FBS and 10 μg/mL polymixin B. Culture supernatants were collected after 72 hours and assayed for VEGF and sVEGFR-1 content by ELISA (R&D Systems).
(§2) In order to confirm the selective upregulation of HIF-2α by the disclosed HIF-2α stabilizer, murine bone marrow-derived macrophages were treated with the disclosed HIF-2α stabilizer for 18 hours, and cells were then lysed and immunoblotted for HIF-1α and HIF-2α.

[4] = tested on: HIF-1α; experiment: Immunoblot for HIF-1α in murine bone marrow-derived macrophages; type: cell-based; settings: treated for 18 hours, FIG. 11A
Experimental: as §1, §2

[5] = tested on: endothelial cell marker CD31; experiment: Tumor vascularity by CD31 immunohistochemistry in melanoma-bearing mice; type: in vivo; settings: mice treated with the control antibody; FIG. 14B; p=0.022
[6] = tested on: tumor growth; experiment: Tumor growth in LysMcre control mice and mice with myeloid-specific deletion of HIF-2α; type: in vivo; settings: FIG. 15
From the text: HIF-2α^flox/flox mice (originally developed by Dr. Celeste Simon, University of Pennsylvania) and LysMcre recombinase mice (originally developed by Irmgard Foerster, University of Duesseldorf) (both purchased from The Jackson Laboratory, Bar Harbor, Me.) were crossed to generate mice homozygous for both LysMcre and the floxed HIF-2α allele. LysMcre recombinase mice, which express no floxed alleles, were used as controls. Deletion of HIF-2α in HIF-2α^flox/flox/LysMcre macrophages, but not the LysMcre control macrophages, was confirmed at the transcript level by real-time PCR.
The disclosed HIF-2α stabilizer is not targeted specifically to macrophages, and will stabilize HIF-2α in all tissues, not only the tumor-associated macrophages. In order to determine the role of macrophages in the anti-tumor response to the disclosed HIF-2α stabilizer, mice with a myeloid-specific deletion of HIF-2α (HIF-2α^flox/flox/LysMcre mice) were utilized.

[7] = mice with HIF-2α-deficient macrophages

`O=C(O)CNC(=O)c1ncc(-c2cccc(F)c2)cc1O` [disclosed HIF-2α stabilizer, {[5-(3-Fluorophenyl)-3-hydroxypyridine-2-carbonyl]amino}acetic acid] was tested, and the “VEGF mRNA (relative amount)” value [1] was “dramatic reduction”, the “relative metastasis to the lung as measured by Pmel17 mRNA expression” value [2] was “reduced metastasis” and the HIF-2α protein [3] was “increase”. For the same compound, the HIF-1α protein [4] was “no corresponding increase”, the “tumor vascularity (CD31)” value [5] was “decreased tumor vascularity” and the tumor growth ([6]; LysMcre control mice) was “inhibited tumor growth”. The “magnitude of the anti-tumor response relative to control mice” value [6, 7] was “much less” and the tumor growth [6, 7] was “reduced tumor growth”.
